Results: ChEMBL document CHEMBL1201862, “PubChem BioAssay data set” (2004)
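Test compounds were applied to cells in 96-well plates for 48 hours at 5 doses. GI50: concentration for 50% inhibition of growth.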 Active and inactive are the calls of the source. No stated cut-off is given here; in the data, active = GI50 up to about 1.1 µM and inactive = higher.

How the values were obtained:
Test in all cases: growth of human tumour cells (NCI), 48 h
DU-145 = tested on: DU-145
PC-3 = tested on: PC-3
COLO 205 = tested on: COLO 205
A498 = tested on: A498
OVCAR-4 = tested on: OVCAR-4
786-0 = tested on: 786-0
BT-549 = tested on: BT-549
SNB-75 = tested on: SNB-75
RXF 393 = tested on: RXF 393
NCI/ADR-RES = tested on: NCI/ADR-RES
KM12 = tested on: KM12
NCI-H522 = tested on: NCI-H522
OVCAR-8 = tested on: OVCAR-8
SR = tested on: SR
LOX IMVI = tested on: LOX IMVI
SK-OV-3 = tested on: SK-OV-3
SN12C = tested on: SN12C
TK-10 = tested on: TK-10
CAKI-1 = tested on: CAKI-1

SMILES	GI50 (DU-145)	GI50 (PC-3)	GI50 (COLO 205)	GI50 (A498)	GI50 (OVCAR-4)	GI50 (786-0)	GI50 (BT-549)	GI50 (SNB-75)	GI50 (RXF 393)	GI50 (NCI/ADR-RES)	GI50 (KM12)	GI50 (NCI-H522)	GI50 (OVCAR-8)	GI50 (SR)	GI50 (LOX IMVI)	GI50 (SK-OV-3)	GI50 (SN12C)	GI50 (TK-10)	GI50 (CAKI-1)
Cc1nc2ccccc2nc1N1CCCC1	> 100 µM (inactive)	> 100 µM (inactive)	> 100 µM (inactive)	> 100 µM (inactive)	> 100 µM (inactive)	> 100 µM (inactive)	> 100 µM (inactive)	68.2 µM (inactive)	> 100 µM (inactive)	> 100 µM (inactive)	> 100 µM (inactive)	> 100 µM (inactive)	> 100 µM (inactive)	> 100 µM (inactive)	> 100 µM (inactive)	> 100 µM (inactive)	> 100 µM (inactive)	> 100 µM (inactive)	> 100 µM (inactive)
O=C(SCc1cccc2ccccc12)c1ccc(Cl)cc1	> 100 µM (inactive)	> 100 µM (inactive)	82.2 µM (inactive)	> 100 µM (inactive)	> 100 µM (inactive)	> 100 µM (inactive)	> 100 µM (inactive)	> 100 µM (inactive)	> 100 µM (inactive)	> 100 µM (inactive)	> 100 µM (inactive)	45.8 µM (inactive)	> 100 µM (inactive)	39.3 µM (inactive)	> 100 µM (inactive)	> 100 µM (inactive)	> 100 µM (inactive)	> 100 µM (inactive)	> 100 µM (inactive)
O=C(OCc1ccccc1)c1ccc(NCc2cc(O)ccc2O)cc1	3.15 µM (inactive)	1.36 µM (inactive)	1.47 µM (inactive)	1.09 µM (active)	1.39 µM (inactive)	1.11 µM (active)	0.713 µM (active)	0.906 µM (active)	1.07 µM (active)	1.47 µM (inactive)	1.52 µM (inactive)	0.35 µM (active)	1.42 µM (inactive)	0.247 µM (active)	1.14 µM (inactive)	2.7 µM (inactive)	1.38 µM (inactive)	1.95 µM (inactive)	0.575 µM (active)
O=C(N/N=C/c1ccccc1)c1cccc2nc3ccccc3nc12	17.9 µM (inactive)	> 100 µM (inactive)	4.08 µM (inactive)	77.4 µM (inactive)	> 100 µM (inactive)	> 100 µM (inactive)	> 58.2 µM (inactive)	> 100 µM (inactive)	> 100 µM (inactive)	> 100 µM (inactive)	54 µM (inactive)	44.8 µM (inactive)	> 85.7 µM (inactive)	> 100 µM (inactive)	29.9 µM (inactive)	> 88.3 µM (inactive)	> 87.9 µM (inactive)	> 100 µM (inactive)	> 100 µM (inactive)
O=C(O)CNC(=O)C1NC(C(F)(F)F)(C(F)(F)F)OC1(C(F)(F)F)C(F)(F)F (stereo not drawn)	> 100 µM (inactive)	> 100 µM (inactive)	> 100 µM (inactive)	> 100 µM (inactive)	> 100 µM (inactive)	> 100 µM (inactive)	> 100 µM (inactive)	> 100 µM (inactive)	> 100 µM (inactive)	> 100 µM (inactive)	> 100 µM (inactive)	> 100 µM (inactive)	> 100 µM (inactive)	> 100 µM (inactive)	> 100 µM (inactive)	> 100 µM (inactive)	> 100 µM (inactive)	> 100 µM (inactive)	> 100 µM (inactive)
O=C(O)CN1CCN2CCOCCN(CC1)CCN(CC(=O)O)CC2	> 100 µM (inactive)	> 100 µM (inactive)	> 100 µM (inactive)	> 100 µM (inactive)	> 100 µM (inactive)	> 100 µM (inactive)	> 100 µM (inactive)	> 100 µM (inactive)	> 100 µM (inactive)	> 100 µM (inactive)	> 100 µM (inactive)	> 100 µM (inactive)	> 100 µM (inactive)	> 100 µM (inactive)	> 100 µM (inactive)	> 100 µM (inactive)	> 100 µM (inactive)	> 100 µM (inactive)	> 100 µM (inactive)
CC1OC(OC2C(Oc3cc(O)c4c(c3)O[C@H](c3ccc(O)cc3)CC4=O)OC(CO)C(O)C2O)C(O)C(O)C1O (stereo partly drawn)	> 100 µM (inactive)	> 100 µM (inactive)	> 100 µM (inactive)	> 100 µM (inactive)	> 100 µM (inactive)	> 100 µM (inactive)	> 100 µM (inactive)	> 100 µM (inactive)	> 100 µM (inactive)	> 100 µM (inactive)	> 100 µM (inactive)	> 100 µM (inactive)	> 100 µM (inactive)	> 100 µM (inactive)	> 100 µM (inactive)	> 100 µM (inactive)	> 100 µM (inactive)	> 100 µM (inactive)	> 100 µM (inactive)
